Reference: patent US20030069295A1, “Use of histamine H3 receptor inverse agonists for the control of appetite and treatment of obesity” (Gliatech, Inc., priority 2001, published 2003)
Like-named read-outs stand apart in the source and are kept apart here. Marks after values point to notes of the source that are not given here. Values belong to the compound of their own block, whether it stands above or below them.

What was measured:
Histamine H3 receptor = target: T1, Histamine H3 receptor (Rattus norvegicus, UniProt Q9QYN8); experiment: Histamine H3 receptor binding analysis, [3H]-Nα-methylhistamine competition in rat cerebral cortical membranes, with and without GTPγS; settings: for Ki Ratio (−/+): Ki without GTPγS / Ki with GTPγS; for remaining activity at 10 µM: read-out: percent of [3H]-Nα-methylhistamine bound (mean), 10000 nM of compound; for binding to GTPγS-treated cortical membrane preparation compared with non-treated preparation: result in words; for remaining activity at 30 pM: 0.03 nM of compound; for remaining activity at 0.0001 µM: 0.1 nM of compound; for remaining activity at 0.3 µM: 300 nM of compound
T1 construct: The cerebral cortical tissues were harvested and frozen on dry ice; from tissue; host or cells: cerebral cortex membranes of male Sprague-Dawley rats

H3 receptor = target: T2, H3 receptor (Rattus norvegicus, UniProt Q9QYN8); experiment: Ex vivo binding: H3 receptor occupancy in the brain following intraperitoneal administration
T2 construct: ½-maximal H3 receptor occupancy in the brain following intraperitoneal administration; from tissue; host or cells: brain of dosed animals
Description: (§1) The percent reduction in food intake by rats two hours after intraperitoneal administration of each compound is shown in Table 5. […] In Table 5, * indicates a significant decrease in food intake compared to the vehicle-treated rats (t-test, p<0.05). The ex vivo binding values in Table 5 represent the drug dose required to obtain ½-maximal H3 receptor occupancy in the brain following intraperitoneal administration. The dose values shown in Table 5 represent the dosage of drug utilized during the food intake studies. In all cases, the tested dose exceeded the amount needed to obtain ½-maximal H3 receptor occupancy in the brain.

Sprague-Dawley rats = experiment: Food intake study in Sprague-Dawley rats; type: in vivo, rat; settings: for effect on food consumption by rats: two hours after intraperitoneal administration; for cumulative food intake, mean (g) ± sem: 10 mg/kg i.p., rats
Experimental: The compounds summarized in Table 3 were examined for their ability to suppress food consumption by adult Sprague-Dawley rats. Male Sprague Dawley rats were purchased from Harlan Laboratories of Indianapolis, Ind. Rats were housed one per cage and maintained on a 12 hour light/dark schedule (lights-out at 12:30 p.m.) with ad libitum access to powdered Teklad Mouse/Rat Diet 7012 (available from Harlan Laboratories of Indianapolis, Ind.) and water. Rats were acclimated to laboratory conditions and food for 1 to 2 weeks prior to initiating food intake studies. On the day of experiments, test compounds were solubilized or suspended in vehicle/carrier and administered to rats (i.p. or p.o.) 30 to 60 minutes prior to the onset of the dark cycle. Food intake was determined at 1, 2, 4, and 24 hours following the onset of the dark cycle. Alternatively, rats were fasted (water provided) for 24 hours prior to evaluating the effects of compounds on food intake. For these studies, compounds or vehicle/carrier were administered and rats were placed in standard small animal metabolism chambers with ad ibitum access to powdered Teklad Mouse/Rat Diet 7012 and water. Food intake was determined at 2 and 4 hours following the onset of feeding.
Data is cumulative food intake in grams, mean±sem. In the table, * indicates a significant decrease in food intake compared to the vehicle-treated rats (t-test, p<0.05).
as §1

[1] = GTPγS-treated receptor preparation (G-protein uncoupled), read-out: Ki (+) GTPγS
[2] = untreated receptor preparation (mixture of coupled and uncoupled H3 receptors), read-out: Ki (−) GTPγS
[3] = Tris-GTPγS, read-out: percent of [3H]-Nα-methylhistamine bound (mean)
[4] = Tris, read-out: percent of [3H]-Nα-methylhistamine bound (mean)

T2 sequence (Q9QYN8 whole entry): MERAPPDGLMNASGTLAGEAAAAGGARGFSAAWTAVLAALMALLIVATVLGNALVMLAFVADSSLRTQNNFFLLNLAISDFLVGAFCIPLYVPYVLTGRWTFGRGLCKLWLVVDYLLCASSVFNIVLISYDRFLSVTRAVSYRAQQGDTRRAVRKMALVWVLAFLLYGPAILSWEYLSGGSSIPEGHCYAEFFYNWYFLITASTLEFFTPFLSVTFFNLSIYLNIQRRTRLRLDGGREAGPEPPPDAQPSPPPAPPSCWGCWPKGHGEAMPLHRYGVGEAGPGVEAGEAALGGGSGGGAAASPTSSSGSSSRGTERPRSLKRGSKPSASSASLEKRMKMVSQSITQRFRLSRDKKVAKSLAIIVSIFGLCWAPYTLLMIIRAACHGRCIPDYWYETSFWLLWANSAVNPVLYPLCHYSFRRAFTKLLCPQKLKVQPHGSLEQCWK
T1 sequence (Q9QYN8 whole entry): as above

Compound: O=C(N[C@@H]1C[C@H]1c1c[nH]cn1)OCCC1CCCCC1 [Compound 1, 4-((1R,2R)-trans-2-(O-(2-cyclohexylethyl)carboxamido)cyclopropyl)imidazole]
Ki (Histamine H3 receptor; [1]): 7.2 nM | Ki Ratio (−/+) (Histamine H3 receptor): 4.1 | remaining activity at 0.0003 µM (Histamine H3 receptor; read-out: percent of [3H]-Nα-methylhistamine bound (mean), 0.3 nM of compound, Tris): 108% | remaining activity at 0.0003 µM (Histamine H3 receptor; read-out: percent of [3H]-Nα-methylhistamine bound (mean), 0.3 nM of compound, Tris-GTPγS): 103% | remaining activity at 0.001 µM (Histamine H3 receptor; read-out: percent of [3H]-Nα-methylhistamine bound (mean), 1 nM of compound, Tris): 95.7% | remaining activity at 0.001 µM (Histamine H3 receptor; read-out: percent of [3H]-Nα-methylhistamine bound (mean), 1 nM of compound, Tris-GTPγS): 98.3% | remaining activity at 0.003 µM (Histamine H3 receptor; read-out: percent of [3H]-Nα-methylhistamine bound (mean), 3 nM of compound, Tris): 102% | remaining activity at 0.003 µM (Histamine H3 receptor; read-out: percent of [3H]-Nα-methylhistamine bound (mean), 3 nM of compound, Tris-GTPγS): 93.3% | remaining activity at 0.01 µM (Histamine H3 receptor; read-out: percent of [3H]-Nα-methylhistamine bound (mean), 10 nM of compound, Tris): 102% | remaining activity at 0.01 µM (Histamine H3 receptor; read-out: percent of [3H]-Nα-methylhistamine bound (mean), 10 nM of compound, Tris-GTPγS): 76.4% | remaining activity at 0.03 µM (Histamine H3 receptor; read-out: percent of [3H]-Nα-methylhistamine bound (mean), 30 nM of compound, Tris): 88.4% | remaining activity at 0.03 µM (Histamine H3 receptor; read-out: percent of [3H]-Nα-methylhistamine bound (mean), 30 nM of compound, Tris-GTPγS): 42.6% | remaining activity at 0.1 µM (Histamine H3 receptor; read-out: percent of [3H]-Nα-methylhistamine bound (mean), 100 nM of compound, Tris): 67.9% | remaining activity at 0.1 µM (Histamine H3 receptor; read-out: percent of [3H]-Nα-methylhistamine bound (mean), 100 nM of compound, Tris-GTPγS): 23.8% | remaining activity at 1 µM (Histamine H3 receptor; read-out: percent of [3H]-Nα-methylhistamine bound (mean), 1000 nM of compound, Tris): 12.6% | remaining activity at 1 µM (Histamine H3 receptor; read-out: percent of [3H]-Nα-methylhistamine bound (mean), 1000 nM of compound, Tris-GTPγS): 4% | remaining activity at 10 µM (Histamine H3 receptor; Tris): -1.6% | remaining activity at 10 µM (Histamine H3 receptor; Tris-GTPγS): 1.3% | binding to GTPγS-treated cortical membrane preparation compared with non-treated preparation (Histamine H3 receptor): higher apparent affinity | Ki (Histamine H3 receptor; [2]): 29.3 nM | Ex Vivo Binding (drug dose required to obtain ½-maximal H3 receptor occupancy in the brain) (H3 receptor): 3.1 ± 1.3 mg/kg

remaining activity at 30 pM (Histamine H3 receptor; [3]): 98.3% | remaining activity at 30 pM (Histamine H3 receptor; [4]): 98.5% | remaining activity at 0.0001 µM (Histamine H3 receptor; [3]): 107% | remaining activity at 0.0001 µM (Histamine H3 receptor; [4]): 96.7% | remaining activity at 0.0003 µM (Histamine H3 receptor; 0.3 nM of compound, Tris-GTPγS, read-out: percent of [3H]-Nα-methylhistamine bound (mean)): 103% | remaining activity at 0.0003 µM (Histamine H3 receptor; 0.3 nM of compound, Tris, read-out: percent of [3H]-Nα-methylhistamine bound (mean)): 96.7% | remaining activity at 0.001 µM (Histamine H3 receptor; 1 nM of compound, Tris-GTPγS, read-out: percent of [3H]-Nα-methylhistamine bound (mean)): 91.1% | remaining activity at 0.001 µM (Histamine H3 receptor; 1 nM of compound, Tris, read-out: percent of [3H]-Nα-methylhistamine bound (mean)): 99.2% | remaining activity at 0.003 µM (Histamine H3 receptor; 3 nM of compound, Tris-GTPγS, read-out: percent of [3H]-Nα-methylhistamine bound (mean)): 77.4% | remaining activity at 0.003 µM (Histamine H3 receptor; 3 nM of compound, Tris, read-out: percent of [3H]-Nα-methylhistamine bound (mean)): 88.7% | remaining activity at 0.01 µM (Histamine H3 receptor; 10 nM of compound, Tris-GTPγS, read-out: percent of [3H]-Nα-methylhistamine bound (mean)): 54.8% | remaining activity at 0.01 µM (Histamine H3 receptor; 10 nM of compound, Tris, read-out: percent of [3H]-Nα-methylhistamine bound (mean)): 60.1% | remaining activity at 0.03 µM (Histamine H3 receptor; 30 nM of compound, Tris-GTPγS, read-out: percent of [3H]-Nα-methylhistamine bound (mean)): 26.2% | remaining activity at 0.03 µM (Histamine H3 receptor; 30 nM of compound, Tris, read-out: percent of [3H]-Nα-methylhistamine bound (mean)): 32.6% | remaining activity at 0.1 µM (Histamine H3 receptor; 100 nM of compound, Tris-GTPγS, read-out: percent of [3H]-Nα-methylhistamine bound (mean)): 10.7% | remaining activity at 0.1 µM (Histamine H3 receptor; 100 nM of compound, Tris, read-out: percent of [3H]-Nα-methylhistamine bound (mean)): 13.5% | remaining activity at 0.3 µM (Histamine H3 receptor; [3]): 4.4% | remaining activity at 0.3 µM (Histamine H3 receptor; [4]): 4.5% | remaining activity at 1 µM (Histamine H3 receptor; 1000 nM of compound, Tris-GTPγS, read-out: percent of [3H]-Nα-methylhistamine bound (mean)): 3.4% | remaining activity at 1 µM (Histamine H3 receptor; 1000 nM of compound, Tris, read-out: percent of [3H]-Nα-methylhistamine bound (mean)): 0.4% | Ki (Histamine H3 receptor; [1]): 3.6 nM | Ki Ratio (−/+) (Histamine H3 receptor): 1.3 | binding to GTPγS-treated cortical membrane preparation compared with non-treated preparation (Histamine H3 receptor): relatively little difference in binding | Ki (Histamine H3 receptor; [2]): 4.6 nM | Ex Vivo Binding (drug dose required to obtain ½-maximal H3 receptor occupancy in the brain) (H3 receptor): 0.92 ± 0.01 mg/kg
Compound: C(=C/CCC1CCCCC1)/CCc1c[nH]cn1 [Compound 2, (3Z)-4-(6-cyclohexylhex-3-en-1-yl)imidazole]
effect on food consumption by rats (Sprague-Dawley rats; result in words): no measurable effect

Compound: O=C(N[C@@H]1C[C@H]1c1c[nH]cn1)OCC1CCCCC1 [Compound 3, 4-((1R,2R)-trans-2-(O-(2-cyclohexylmethyl)carboxamido)cyclopropyl)imidazole]
Ki (Histamine H3 receptor; Ki (+) GTPγS, GTPγS-treated receptor preparation (G-protein uncoupled)): 4.2 nM | Ki (Histamine H3 receptor; Ki (−) GTPγS, untreated receptor preparation (mixture of coupled and uncoupled H3 receptors)): 10.1 nM | Ki Ratio (−/+) (Histamine H3 receptor): 2.4 | Ex Vivo Binding (drug dose required to obtain ½-maximal H3 receptor occupancy in the brain) (H3 receptor): 2.6 ± 1.3 mg/kg | cumulative food intake, mean (g) ± sem (Sprague-Dawley rats; 1 hr following onset of dark cycle): 1.8 ± 0.3* g | cumulative food intake, mean (g) ± sem (Sprague-Dawley rats; 2 hr following onset of dark cycle): 4.4 ± 0.2* g | cumulative food intake, mean (g) ± sem (Sprague-Dawley rats; 4 hr following onset of dark cycle): 7.1 ± 0.5* g | cumulative food intake, mean (g) ± sem (Sprague-Dawley rats; 24 hr following onset of dark cycle): 17.4 ± 1.2* g | effect of a single administration on food consumption (Sprague-Dawley rats; single administration, up to 24 hours, result in words): significant reduction of food consumption

Ki (Histamine H3 receptor; [1]): 1.9 nM | Ki Ratio (−/+) (Histamine H3 receptor): 6.0 | Ki (Histamine H3 receptor; [2]): 11.3 nM | Ex Vivo Binding (drug dose required to obtain ½-maximal H3 receptor occupancy in the brain) (H3 receptor): ˜15 mg/kg
Compound: N[C@H](/C=C\CCc1c[nH]cn1)CC1CCCCC1 [Compound 4, 4-(((5S)(3Z)-5-amino-6-cyclohexyl)hex-3-en-1-yl)imidazole]

Ex Vivo Binding (drug dose required to obtain ½-maximal H3 receptor occupancy in the brain) (H3 receptor): 8.0 ± 1.3 mg/kg
Compound: O=C(CCCCC1CCCCC1)N1CCC(c2c[nH]cn2)CC1 [Compound 5, 4-(N-(5-cyclohexylpentan-1-one-1-yl)piperidin-4-yl)imidazole]

Ki (Histamine H3 receptor; [1]): 0.24 nM | Ki Ratio (−/+) (Histamine H3 receptor): 1.7 | Ki (Histamine H3 receptor; [2]): 0.41 nM | Ex Vivo Binding (drug dose required to obtain ½-maximal H3 receptor occupancy in the brain) (H3 receptor): 0.08 ± 0.03 mg/kg
Compound: CC(C)(C)CCC#C[C@@H]1C[C@H]1c1c[nH]cn1 [Compound 6, (1R,2R)-trans-4-(2-(5,5-dimethylhex-1-ynyl)cyclopropyl) imidazole]
effect on food consumption by rats (Sprague-Dawley rats; result in words): no measurable effect

Ki (Histamine H3 receptor; [1]): 2.3 nM | Ki Ratio (−/+) (Histamine H3 receptor): 1.5 | Ki (Histamine H3 receptor; [2]): 3.4 nM | Ex Vivo Binding (drug dose required to obtain ½-maximal H3 receptor occupancy in the brain) (H3 receptor): 2.9 ± 1.3 mg/kg
Compound: O=C(N[C@@H]1C[C@H]1c1c[nH]cn1)OCc1c(Cl)cccc1Cl [Compound 7, 4-((1R,2R)-trans-2-(O-(2,6-dichlorophenylmethyl)carboxamido)cyclopropyl)imidazole]
effect on food consumption by rats (Sprague-Dawley rats; result in words): no measurable effect

Ki (Histamine H3 receptor; [1]): 7.8 nM | Ki Ratio (−/+) (Histamine H3 receptor): 2.3 | Ki (Histamine H3 receptor; [2]): 18.2 nM | Ex Vivo Binding (drug dose required to obtain ½-maximal H3 receptor occupancy in the brain) (H3 receptor): 5.6 ± 0.12 mg/kg
Compound: Fc1ccc(C(OCCCc2c[nH]cn2)c2ccc(F)cc2)cc1 [Compound 8, 3-(1H-imidazol-4-yl)propyl-di(p-fluorophenyl)-methyl ether]

Compound: CC(C)(C)CCOC(=O)N[C@@H]1C[C@H]1c1c[nH]cn1 [Compound 9, 4-((1R,2R)-trans-2-(O-(3,3-dimethyl-but-1-yl)carboxamido)cyclopropyl)imidazole]
Ki (Histamine H3 receptor; [1]): 4.5 nM | Ki Ratio (−/+) (Histamine H3 receptor): 1.6 | Ki (Histamine H3 receptor; [2]): 7.3 nM | Ex Vivo Binding (drug dose required to obtain ½-maximal H3 receptor occupancy in the brain) (H3 receptor): 3.7 ± 0.4 mg/kg | effect on food consumption by rats (Sprague-Dawley rats; result in words): no measurable effect
